Experimental data published in article PMC9917264, “Ca^2+-Triggered Coelenterazine-Binding Protein Renilla: Expected and Unexpected Features” (International Journal of Molecular Sciences, 2023).

Target: T1, coelenterazine-binding apoprotein (apoCBP) (Renilla muelleri, UniProt C9V488)
T1 construct: gene CBP1; recombinant apoprotein, single chain, 21 kDa
T1 sequence (C9V488 1-186): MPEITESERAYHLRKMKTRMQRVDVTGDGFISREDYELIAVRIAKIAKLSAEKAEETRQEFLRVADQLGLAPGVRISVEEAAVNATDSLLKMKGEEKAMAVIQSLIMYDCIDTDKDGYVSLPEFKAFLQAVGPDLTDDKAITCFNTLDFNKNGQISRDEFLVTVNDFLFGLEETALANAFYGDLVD
Assay: absorption spectrum of the CBP complex
Conditions: Ca2+-free; noncovalent

Oc1ccc(Cc2nc3c(Cc4ccccc4)nc(-c4ccc(O)cc4)cn3c2O)cc1 [coelenterazine]
absorption spectrum of the CBP complex: FMZ-apoCBP and CBP spectra obtained under the same conditions are practically identical
